Data reported in patent US10407381B2 (THE BOARD OF TRUSTEES OF THE UNIVERSITY OF ILLINOIS, priority 2015, dated 2019).
pEC50: −log10 of the molar value. Where two headings read alike, the source gives them in different places.

Columns and labels:
human 5-HT2C-INI = target: T1, human 5-HT2C-INI (Homo sapiens, UniProt P28335); assay: Calcium flux (FLIPR) assay, human 5-HT2C-INI stably expressed in HEK-293 (Flp-In-293) cells; details: human 5-HT2C-INI in HEK-293 cells, FLIPR; for EC50: NA = no activity at 10 μM; for Emax, % 5-HT 5-HT2C: normalized to 5-HT
T1 sequence (P28335 33-458): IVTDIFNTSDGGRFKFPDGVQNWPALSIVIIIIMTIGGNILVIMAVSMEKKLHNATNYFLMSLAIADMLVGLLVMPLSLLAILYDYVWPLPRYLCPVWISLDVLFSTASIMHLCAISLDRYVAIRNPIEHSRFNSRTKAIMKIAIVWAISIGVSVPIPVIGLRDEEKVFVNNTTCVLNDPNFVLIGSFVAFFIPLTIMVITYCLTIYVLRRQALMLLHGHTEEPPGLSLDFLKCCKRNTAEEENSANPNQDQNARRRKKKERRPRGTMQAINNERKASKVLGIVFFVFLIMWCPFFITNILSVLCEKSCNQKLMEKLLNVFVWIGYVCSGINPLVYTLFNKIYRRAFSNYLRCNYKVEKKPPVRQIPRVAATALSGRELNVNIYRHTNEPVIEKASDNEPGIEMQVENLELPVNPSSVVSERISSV

5-HT2B = 5-HT2B (Homo sapiens, UniProt P41595); assay: Calcium flux (FLIPR) assay, human 5-HT2B stably expressed in HEK-293 (Flp-In-293) cells; details: for Emax, % 5-HT 5-HT2B: normalized to 5-HT
Chain of 5-HT2B (P41595 whole entry): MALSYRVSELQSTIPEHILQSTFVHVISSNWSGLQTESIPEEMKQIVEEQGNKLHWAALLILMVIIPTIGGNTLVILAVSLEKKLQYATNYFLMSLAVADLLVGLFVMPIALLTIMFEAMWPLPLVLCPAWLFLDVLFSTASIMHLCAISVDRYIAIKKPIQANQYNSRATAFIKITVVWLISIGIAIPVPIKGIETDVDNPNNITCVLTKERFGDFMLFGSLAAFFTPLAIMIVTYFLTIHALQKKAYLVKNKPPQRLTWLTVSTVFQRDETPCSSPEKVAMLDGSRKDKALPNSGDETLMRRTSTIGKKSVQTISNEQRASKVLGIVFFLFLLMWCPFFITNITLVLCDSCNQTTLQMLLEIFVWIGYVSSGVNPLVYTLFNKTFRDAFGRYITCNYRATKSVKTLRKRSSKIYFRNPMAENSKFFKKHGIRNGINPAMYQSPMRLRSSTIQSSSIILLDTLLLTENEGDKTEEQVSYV

5-HT2A = 5-HT2A (Homo sapiens, UniProt P28223); assay: Calcium flux (FLIPR) assay, human 5-HT2A stably expressed in HEK-293 (Flp-In-293) cells; details: for Emax, % 5-HT 5-HT2A: normalized to 5-HT
Chain of 5-HT2A (P28223 whole entry): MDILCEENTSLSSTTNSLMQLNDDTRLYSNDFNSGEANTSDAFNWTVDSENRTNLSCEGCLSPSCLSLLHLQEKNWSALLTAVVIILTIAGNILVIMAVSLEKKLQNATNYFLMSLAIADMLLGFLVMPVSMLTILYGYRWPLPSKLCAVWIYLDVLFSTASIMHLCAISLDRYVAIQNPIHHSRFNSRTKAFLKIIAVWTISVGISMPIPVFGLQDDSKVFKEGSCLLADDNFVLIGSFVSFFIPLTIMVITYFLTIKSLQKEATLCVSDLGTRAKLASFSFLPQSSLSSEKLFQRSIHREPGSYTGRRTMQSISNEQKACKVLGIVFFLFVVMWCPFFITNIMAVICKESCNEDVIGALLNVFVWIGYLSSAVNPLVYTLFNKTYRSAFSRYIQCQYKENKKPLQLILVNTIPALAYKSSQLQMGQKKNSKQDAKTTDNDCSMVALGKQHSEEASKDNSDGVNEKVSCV

[1] = EC50, nM 5-HT2B, human 5-HT2B in HEK-293 cells, NA = no activity at 10 μM
[2] = EC50, nM 5-HT2A, human 5-HT2A in HEK-293 cells, FLIPR, NA = no activity at 10 μM
[3] = human 5-HT2A in HEK-293 cells, FLIPR
[4] = read-out: EC50, nM 5-HT2B, human 5-HT2B in HEK-293 cells, NA = no activity at 10 μM
[5] = read-out: EC50, nM 5-HT2A, human 5-HT2A in HEK-293 cells, FLIPR, NA = no activity at 10 μM

Row | SMILES | EC50 (human 5-HT2C-INI; EC50, nM 5-HT2C) [nM] | Emax, % 5-HT 5-HT2C (human 5-HT2C-INI) | EC50 (5-HT2B; [1]) [nM] | Emax, % 5-HT 5-HT2B (5-HT2B; human 5-HT2B in HEK-293 cells) | EC50 (5-HT2A; [2]) [nM] | Emax, % 5-HT 5-HT2A (5-HT2A; [3]) | pEC50 (5-HT2A) | EC50 (human 5-HT2C-INI; read-out: EC50, nM 5-HT2C) [nM] | EC50 (5-HT2B; [4]) [nM] | EC50 (5-HT2A; [5]) [nM] | EC50 (5-HT2A; EC50, nM 5-HT2A) [nM]
1 | C#CCOc1cc(F)c(Cl)cc1C1CC1CN (single isomer, unassigned; (+)) [(+)-Example 6, (+)-(2-(5-Chloro-4-fluoro-2-(prop-2-yn-1-yloxy)phenyl)cyclopropyl)methanamine] | 67 | (80%) % 5-HT | 1010 | (30%) % 5-HT | 628 | (22%) % 5-HT |  |  |  |  | 
2 | CCCOc1ccc(F)cc1C1CC1CN (single isomer, unassigned; (+)) [(+)-Example 7, (+)-(2-(5-Fluoro-2-propoxyphenyl)cyclopropyl)methanamine] | 11 | (88%) % 5-HT | 1990 | (33%) % 5-HT | 1020 | (15%) % 5-HT |  |  |  |  | 
3 | CCOc1ccc(Cl)cc1C1CC1CN (single isomer, unassigned; (+)) [(+)-Example 11, (+)-(2-(5-Chloro-2-ethoxyphenyl)cyclopropyl)methanamine] | 13 | (91%) % 5-HT | 86 | (45%) % 5-HT | 1210 | (49%) % 5-HT |  |  |  |  | 
4 | CC(C)Oc1ccc(Cl)cc1C1CC1CN (single isomer, unassigned; (+)) [(+)-Example 14, (+)-(2-(5-Chloro-2-isopropoxyphenyl)cyclopropyl)methanamine] | 91 | (86%) % 5-HT | 997 | (37%) % 5-HT | 4000 | (19%) % 5-HT |  |  |  |  | 
5 | NCC1CC1c1cc(Cl)ccc1OCC(F)F (single isomer, unassigned; (+)) [(+)-Example 21, (+)-(2-(5-Chloro-2-(2,2-difluoroethoxy)phenyl)cyclopropyl)methanamine] | 91 | (81%) % 5-HT | 839 | (27%) % 5-HT | 1810 | (31%) % 5-HT |  |  |  |  | 
6 | C=C(C)COc1ccc(Cl)cc1C1CC1CN (single isomer, unassigned; (+)) [(+)-Example 24, (+)-(2-(5-Chloro-2-((2-methylallyl)oxy)phenyl)cyclopropyl)methanamine] | 212 | (90%) % 5-HT | 422 | (32%) % 5-HT |  | (26%) % 5-HT | 6.04 |  |  |  | 
7 | C#CCOc1ccc(Cl)cc1C1CC1CN (single isomer, unassigned; (+)) [(+)-Example 26, (+)-(2-(5-Chloro-2-(prop-2-yn-1-yloxy)phenyl)cyclopropyl)methanamine] | 63 | (65%) % 5-HT | 4600 | (29%) % 5-HT | 1010 | (21%) % 5-HT |  |  |  |  | 
8 | CCOc1ccc(Cl)c(F)c1C1CC1CN (single isomer, unassigned; (+)) [(+)-Example 30, (+)-(2-(3-Chloro-6-ethoxy-2-fluorophenyl)cyclopropyl)methanamine] | 28 | (89%) % 5-HT | 900 | (36%) % 5-HT | 820 | (53%) % 5-HT |  |  |  |  | 
9 | C=CCOc1ccc(Cl)c(F)c1C1CC1CN (single isomer, unassigned; (+)) [(+)-Example 32, (+)-(2-(6-(Allyloxy)-3-chloro-2-fluorophenyl)cyclopropyl)methanamine] | 116 | (90%) % 5-HT | 6980 | (69%) % 5-HT |  | (12%) % 5-HT |  |  |  |  | 
10 | COc1cc(Cl)c(Cl)cc1C1CC1CN (single isomer, unassigned; (+)) [(+)-Example 33, (+)-(2-(4,5-Dichloro-2-methoxyphenyl)cyclopropyl)methanamine] |  | (95%) % 5-HT |  |  |  | (85%) % 5-HT |  | 9.7 | 31 | 21 | 
11 | NCC1CC1c1cc(Cl)c(Cl)cc1OCCF (single isomer, unassigned; (+)) [(+)-Example 34, (+)-(2-(4,5-Dichloro-2-(2-fluoroethoxy)phenyl)cyclopropyl)methanamine] | 18 | (87%) % 5-HT | 15400 | (40%) % 5-HT |  |  | 7.04 |  |  |  | 
12 | COc1ccc(Cl)c(Cl)c1C1CC1CN (single isomer, unassigned; (+)) [(+)-Example 36, (+)-(2-(2,3-Dichloro-6-methoxyphenyl)cyclopropyl)methanamine] |  | (98%) % 5-HT |  | (46%) % 5-HT |  | (76%) % 5-HT |  | 21 | 534 | 203 | 
13 | CCOc1ccc(Cl)c(Cl)c1C1CC1CN (single isomer, unassigned; (+)) [(+)-Example 37, (+)-(2-(2,3-Dichloro-6-ethoxyphenyl)cyclopropyl)methanamine] | 91 | (101%) % 5-HT | 1310 | (61%) % 5-HT | 976 | (32%) % 5-HT |  |  |  |  | 
14 | NCC1CC1c1c(OCCF)ccc(Cl)c1Cl (single isomer, unassigned; (+)) [(+)-Example 38, (+)-(2-(2,3-Dichloro-6-(2-fluoroethoxy)phenyl)cyclopropyl)methanamine] | 232 | (90%) % 5-HT | 5520 | (99%) % 5-HT |  | (22%) % 5-HT | 6.02 |  |  |  | 
15 | COc1cc(F)c(F)cc1C1CC1CN (single isomer, unassigned; (+)) [(+)-Example 40, (+)-(2-(4,5-Difluoro-2-methoxyphenyl)cyclopropyl)methanamine] |  | (108%) % 5-HT |  | (69%) % 5-HT |  |  |  |  |  | 81 | 
16 | CCOc1cc(F)c(F)cc1C1CC1CN (single isomer, unassigned; (+)) [(+)-Example 41, (+)-(2-(2-Ethoxy-4,5-difluorophenyl)cyclopropyl)methanamine] | 2.9 | (105%) % 5-HT | 55 | (59%) % 5-HT | 260 | (69%) % 5-HT |  |  |  |  | 
17 | CCCOc1cc(F)c(F)cc1C1CC1CN (single isomer, unassigned; (+)) [(+)-Example 43, (+)-(2-(4,5-Difluoro-2-propoxyphenyl)cyclopropyl)methanamine] | 26 | (93%) % 5-HT | 2540 | (24%) % 5-HT |  | (23%) % 5-HT |  |  |  |  | 805
18 | CCOc1ccc(F)c(F)c1C1CC1CN (single isomer, unassigned; (+)) [(+)-Example 46, (+)-(2-(6-Ethoxy-2,3-difluorophenyl)cyclopropyl)methanamine] | 7.2 | (107%) % 5-HT | 288 | (48%) % 5-HT | 1160 | (57%) % 5-HT |  |  |  |  | 
19 | CCCOc1ccc(F)c(F)c1C1CC1CN (single isomer, unassigned; (+)) [(+)-Example 48, (+)-(2-(2,3-Difluoro-6-propoxyphenyl)cyclopropyl)methanamine] | 47 | (90%) % 5-HT | 4220 | (39%) % 5-HT | 2070 | (18%) % 5-HT |  |  |  |  | 
20 | COc1ccc(F)c(Cl)c1C1CC1CN (single isomer, unassigned; (+)) [(+)-Example 50, (+)-(2-(2-Chloro-3-fluoro-6-methoxyphenyl)cyclopropyl)methanamine] |  | (88%) % 5-HT |  | (60%) % 5-HT |  | (77%) % 5-HT |  | 24 |  | 769 | 
21 | CCOc1ccc(F)c(Cl)c1C1CC1CN (single isomer, unassigned; (+)) [(+)-Example 51, (+)-(2-(2-Chloro-6-ethoxy-3-fluorophenyl)cyclopropyl)methanamine] | 22 | (15%) % 5-HT | 760 | (56%) % 5-HT | 761 | (47%) % 5-HT |  |  |  |  | 
